The subject of data set [1] is FR-positive KB tumors. Description: Tissue distribution, KB tumor model (Example 16, Table 5). It is filed as in vivo, nude mice. The conditions noted are these: about 20-fold excess of free folate. Here is the method:
The protocols used in this example are similar to those described in Example 11. The ability of ^99mTc-EC11 (peptide-A1), ^99mTc-EC13 (peptide-A3), and ^99mTc-EC14 (peptide-A2) to target tumors in vivo was assessed using the FR-positive KB tumor model.
(§1) FR-positive KB tumor cells (0.25×10^6 per animal) were inoculated subcutaneously in the intracapsular region. Fourteen days after tumor cell inoculation, the animals (n=4/group) were injected intravenously with ^99mTc-EC11, ^99mTc-EC13, or ^99mTc-EC14 at the doses (about 12 μg/kg) of the conjugates shown in Table 5 below. Stocks of ^99mTc-EC11, ^99mTc-EC13, and ^99mTc-EC14 solutions were prepared on the day of use as described above. About a 20-fold excess of free folate (about 200 μg/kg) was co-administered to control animals (n=4/group). […] Selected tissues were removed, weighed, and counted in an automatic gamma counter to determine ^99mTc distribution. Uptake of the radiopharmaceutical in terms of percentage injected dose of wet weight tissue (% ID/g) was calculated by reference to standards prepared from dilutions of the injected preparation.

Another data set relates to FR-positive M109 tumors. The experiment in a line: Tissue distribution, subcutaneous M109 tumors (Example 11). Here is the method: The ability of ^99mTc-EC20 to target tumors in vivo was assessed using a FR-positive M109 model.
Four to five week-old mice (Balb/c strain) were purchased from Harlan Sprague Dawley, Inc. (Indianapolis, Ind.) and were maintained on a folate-free diet for a total of three weeks prior to the experiment. Syngeneic, FR-positive M109 tumor cells (1×10^6 per animal) were inoculated in the subcutis of the right axilla two weeks prior to the experiment.
Animals received an approximate 40 μmol/kg i.v. dose of test article in 100 μL volume via a lateral tail vein during brief diethyl ether anesthesia. Four hours post-injection, animals were sacrificed by CO2 asphyxiation, and dissected. Selected tissues were removed, weighed, and counted to determine ^99mTc distribution. CPM values were decay-corrected, and results were tabulated as % injected dose per gram of wet weight tissue.

Data set [2] deals with T1, folate receptor (FR) on FR-positive KB cells (Homo sapiens, UniProt P15328).
T1 construct: FR-positive KB cells were gently trypsinized; endogenous in cells; host or cells: KB cells
T1 sequence (P15328 25-234): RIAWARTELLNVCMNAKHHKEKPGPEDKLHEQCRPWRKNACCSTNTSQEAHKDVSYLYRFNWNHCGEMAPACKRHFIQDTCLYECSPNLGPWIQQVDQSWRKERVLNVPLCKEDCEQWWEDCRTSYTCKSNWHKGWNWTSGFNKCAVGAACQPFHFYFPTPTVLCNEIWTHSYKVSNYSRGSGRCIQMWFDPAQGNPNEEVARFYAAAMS
The experiment in a line: Relative affinity assay (blocking of 3H-folic acid binding to KB cells). The conditions noted are these: for IC50: 100 nM 3H-folic acid, KB cells, 15 min on ice, triplicate; for RA (relative affinity): inverse molar ratio to displace 50% of 3H-folic acid, folic acid set to 1. Here is the method: The relative affinity of various folate derivatives was determined according to the method described by Westerhoff et al. (Mol. Pharm., 48: 459-471 (1995)) with slight modification. Briefly, FR-positive KB cells were gently trypsinized in 0.25% trypsin/PBS at room temperature for 3 minutes and then diluted in FFRPMI/HIFCS. Following a 5 min 800×g spin and one PBS wash, the final cell pellet was suspended in FFRPMI 1640 (no serum). […] Samples were centrifuged at 10,000×g for 5 min, cell pellets were suspended in buffer, were transferred to individual vials containing 5 mL of scintillation cocktail, and were then counted for radioactivity.
Likewise, values lower than unity reflect weaker affinity, and values higher than unity reflect stronger affinity.
Following a 15-minute incubation at 4° C., cells were rinsed free of unbound material and counted for residual cell-associated radioactivity.

Data set [3] has as its target T2, folate receptor (FR) on KB cells (Homo sapiens, UniProt P15328).
T2 construct: FR-positive KB cells were gently trypsinized; endogenous in cells; host or cells: KB cells
The experiment in a line: Concentration-dependent cell uptake (Scatchard analysis). It is filed as binding. The conditions noted are these: 2 hours at 37° C., read-out: KD of binding (Scatchard analysis). Here is the method:
KB cells were seeded in 12-well Falcon plates and allowed to form sub-confluent monolayers overnight. Following one rinse with 1 mL of fresh FERPMI/HIFCS, each well received 1 mL of FFRPMI/HIFCS containing increasing concentrations of ^99mTc-EC20. Cells were incubated for 2 hours at 37° C. and then rinsed four times with 1 mL of ice-cold PBS, pH 7.4. The monolayers were dissolved in 0.5 mL of PBS, pH 7.4 containing 1% sodium dodecyl sulfate for 15 min at room temperature and then counted for radioactivity using a Packard gamma counter. Protein content was determined as described above, and final tabulated values were expressed in terms of molecules of EC20 per cell.
The particular KB cells used were determined to bind a maximum of four million molecules of the folate radiopharmaceutical per cell.
This HPLC-purified radiolabeled material (Peak B material) was collected and then added to cultured KB cells.

The test system of data set [4] is FR-positive KB tumors. Description: Tissue distribution of 99mTc-EC53, KB tumors (Table 6). It is filed as in vivo. Here is the method: as §1
Similar results (see Table 6 below) were obtained with ^99mTc-EC53 (the all D-enantiomer of EC20) using similar protocols except that the dose of ^99mTc-EC53 was about 50 μg/kg and about a 100-fold excess of free folate or cold EC53 was used. […] The accumulation was blocked by co-administration of free folate.

The subject of another data set is KB tumor. The conditions noted are these: reported previously; cited from earlier work.
[5] abbreviates: 4 hr post i.v., + Folic acid (100 equivalents).
Where [6] appears, read: 4 hr post intravenous injection.

T2 sequence (P15328 25-234): as above

Regarding `Nc1nc2ncc(CNc3ccc(C(=O)N[C@@H](CCC(=O)N[C@H](CCC(=O)NC[C@@H]4[NH2+][99Tc-]56(=[O])[S]C[C@@H](C(=O)O)[N]5C(=O)[C@H](CC(=O)O)[N]6C4=O)C(=O)O)C(=O)O)cc3)nc2c(=O)[nH]1` [^99mTc-EC14], in the data set with FR-positive KB tumors [1], the “accumulation in FR-positive KB tumors and kidneys on co-administration of free folate” value is given as “blocked”. In the data set with FR-positive M109 tumors (setting [5]), the Blood is listed as 0.19 ± 0.07 % Injected Dose per Gram Tissue, the Heart is listed as 0.08 ± 0.01 % Injected Dose per Gram Tissue, the Intestine was 0.32 ± 0.11 % Injected Dose per Gram Tissue and the Kidney is given as 5.94 ± 0.52 % Injected Dose per Gram Tissue. In addition, in the data set on FR-positive M109 tumors (setting [5]), the Liver was 1.37 ± 0.98 % Injected Dose per Gram Tissue, the Lung is given as 0.15 ± 0.04 % Injected Dose per Gram Tissue, the Muscle was 0.09 ± 0.11 % Injected Dose per Gram Tissue and the Spleen is on record as 2.99 ± 1.43 % Injected Dose per Gram Tissue. Also, in the data set with FR-positive M109 tumors (setting [5]), the Stomach was 0.10 ± 0.03 % Injected Dose per Gram Tissue, the Tumor is reported as 0.43 ± 0.52 % Injected Dose per Gram Tissue and the Tumor/Blood was 2.00 ± 2.00. For the same compound, in the data set with FR-positive M109 tumors (setting [6]), the Blood is reported as 0.31 ± 0.14 % Injected Dose per Gram Tissue, the Heart is listed as 2.39 ± 0.64 % Injected Dose per Gram Tissue, the Intestine is 1.70 ± 0.55 % Injected Dose per Gram Tissue and the Kidney is 98.0 ± 40.7 % Injected Dose per Gram Tissue. In addition, in the data set on FR-positive M109 tumors (setting [6]), the Liver is given as 3.44 ± 2.19 % Injected Dose per Gram Tissue, the Lung is reported as 2.08 ± 0.40 % Injected Dose per Gram Tissue, the Muscle is on record as 0.99 ± 0.28 % Injected Dose per Gram Tissue and the Spleen is 2.68 ± 2.49 % Injected Dose per Gram Tissue. For the same compound, in the data set on FR-positive M109 tumors (setting [6]), the Stomach is listed as 1.47 ± 0.58 % Injected Dose per Gram Tissue and the Tumor/Blood worked out at 34.1 ± 7.41.

For `Nc1nc2ncc(CNc3ccc(C(=O)NC(CCC(=O)NCC(N)C(=O)NC(CC(=O)O)C(=O)NC(CS)C(=O)O)C(=O)O)cc3)nc2c(=O)[nH]1` (stereo not shown) [EC20], in data set [2], the IC50 worked out at 128 nM and the “RA (relative affinity)” value amounted to 0.92. Further, the Kd in data set [3] is about 3 nM.

On to `Nc1nc2ncc(CNc3ccc(C(=O)N[C@H](CCC(=O)NC[C@@H]4[NH2+][Re-]56(=[O])[S]C[C@@H](C(=O)O)[N]5C(=O)[C@H](CC(=O)O)[N]6C4=O)C(=O)O)cc3)nc2c(=O)[nH]1` (single isomer, unassigned; isomer 2) [EC20:Re isomer 2], for which, in data set [2], the half-maximal inhibitory concentration (IC50) worked out at 86 nM and the “RA (relative affinity)” value is 1.37. Moreover, in data set [2] (listed as Re-EC20 isomer B), the “RA (relative affinity)” value was found to be 1.37.

Turning to `Nc1nc2ncc(CNc3ccc(C(=O)N[C@H](CCC(=O)NC[C@H]4[NH2+][99Tc-]56(=[O])[S]C[C@H](C(=O)O)[N]5C(=O)[C@@H](CC(=O)O)[N]6C4=O)C(=O)O)cc3)nc2c(=O)[nH]1` [^99mTc-EC53], in the data set with FR-positive KB tumors [4] (99mTc-EC53 alone), the “Tumor/Blood, Average” value is given as 31.4; the “Tumor/Kidney, Average” value worked out at 0.2; the “Tumor/Liver, Average” value is reported as 3.4; the “Tumor/Muscle, Average” value is reported as 17.1. In addition, in the data set with FR-positive KB tumors [4] (99mTc-EC53 alone, 50.0 ug/kg), the “Tumor, Average” value was 11.77 % ID/g; the “blood, Average” value is reported as 0.38 % ID/g; the “heart, Average” value amounted to 1.09 % ID/g; the “intestine, Average” value is recorded as 3.53 % ID/g. Besides, in the data set with FR-positive KB tumors [4] (99mTc-EC53 alone, 50.0 ug/kg), the “kidney, Average” value amounted to 77.99 % ID/g; the “liver, Average” value stood at 3.86 % ID/g; the “lung, Average” value was found to be 0.89 % ID/g; the “muscle, Average” value came out at 0.76 % ID/g. Also, in the data set with FR-positive KB tumors [4] (99mTc-EC53 alone, 50.0 ug/kg), the “spleen, Average” value came out at 0.67 % ID/g and the “stomach, Average” value is recorded as 1.04 % ID/g. Also, the “accumulation in FR-positive KB tumors and kidneys on co-administration of free folate” value in the data set on FR-positive KB tumors [4] (about a 100-fold excess of free folate) is “blocked”. Further, in the data set with FR-positive KB tumors [4] (plus EC53 (cold)), the “Tumor/Blood, Average” value was 4.5; the “Tumor/Kidney, Average” value was 0.14; the “Tumor/Liver, Average” value worked out at 0.3; the “Tumor/Muscle, Average” value is 8.5. For the same compound, in the data set with FR-positive KB tumors [4] (plus Folic Acid), the “Tumor/Blood, Average” value came to 2.2; the “Tumor/Kidney, Average” value came out at 0.07; the “Tumor/Liver, Average” value was found to be 0.1; the “Tumor/Muscle, Average” value amounted to 5.2.

Regarding `Nc1nc2ncc(CNc3ccc(C(=O)N[C@@H](CCC(=O)NCCNC(=O)CN(CCN(CCN(CC(=O)[O-])CC(=O)[O-])CC(=O)[O-])CC(=O)[O-])C(=O)O)cc3)nc2c(=O)[nH]1.[111In]` [^111In-DTPA-Folate, reference compound], in the data set on FR-positive M109 tumors (setting [5]), the Blood is reported as 0.09 ± 0.04 % Injected Dose per Gram Tissue, the Heart is on record as 0.06 ± 0.02 % Injected Dose per Gram Tissue, the Intestine is given as 0.82 ± 0.14 % Injected Dose per Gram Tissue and the Kidney is reported as 3.14 ± 1.96 % Injected Dose per Gram Tissue. In addition, in the data set on FR-positive M109 tumors (setting [5]), the Liver is 0.81 ± 0.03 % Injected Dose per Gram Tissue, the Lung is on record as 0.09 ± 0.2 % Injected Dose per Gram Tissue, the Muscle is 0.05 ± 0.04 % Injected Dose per Gram Tissue and the Spleen is 1.46 ± 0.73 % Injected Dose per Gram Tissue. Besides, in the data set with FR-positive M109 tumors (setting [5]), the Stomach is on record as 0.25 ± 0.20 % Injected Dose per Gram Tissue, the Tumor was 0.46 ± 0.42 % Injected Dose per Gram Tissue and the Tumor/Blood is on record as 5.00 ± 4.60. In the data set on FR-positive M109 tumors (setting [6]), the Blood is given as 0.21 ± 0.10 % Injected Dose per Gram Tissue, the Heart is 2.57 ± 0.82 % Injected Dose per Gram Tissue, the Intestine was 1.87 ± 0.69 % Injected Dose per Gram Tissue and the Kidney is 191 ± 79.2 % Injected Dose per Gram Tissue. For the same compound, in the data set on FR-positive M109 tumors (setting [6]), the Liver is listed as 5.21 ± 2.63 % Injected Dose per Gram Tissue, the Lung was 1.72 ± 0.61 % Injected Dose per Gram Tissue, the Muscle is on record as 1.19 ± 0.48 % Injected Dose per Gram Tissue and the Spleen is 3.30 ± 2.33 % Injected Dose per Gram Tissue. For the same compound, in the data set on FR-positive M109 tumors (setting [6]), the Stomach is on record as 1.62 ± 0.65 % Injected Dose per Gram Tissue and the Tumor/Blood was 102 ± 43.4.

Consider “^99mTc-12-amino-3,3,9,9-tetramethyl-5-oxa-4,8 diaza-2,10-dodecanedinoe dioxime (OXA) folate conjugate”, for which the “tracer uptake in a KB tumor” value in the data set with KB tumor is about 7 % ID/g.

In data set [2], `Nc1nc2ncc(CNc3ccc(C(=O)N[C@H](CCC(=O)NC[C@@H]4[NH2+][Re-]56(=[O])[S]C[C@@H](C(=O)O)[N]5C(=O)[C@H](CC(=O)O)[N]6C4=O)C(=O)O)cc3)nc2c(=O)[nH]1` (single isomer, unassigned; isomer 1) [EC20:Re isomer 1] came in with an IC50 of 83 nM. For the same compound, the “RA (relative affinity)” value in data set [2] and in data set [2] (listed as Re-EC20 isomer A) was 1.42 each time.

The term IC50 denotes the concentration at which inhibition is half-maximal. A lower IC50 goes with greater potency. As usually defined, the Kd is the concentration at which binding is half-saturated.

Values taken from patent US7862798B2, “Vitamin-targeted imaging agents” (Endocyte, Inc., priority 2002, dated 2011).
